The target in test [1] is T1, ULK1 kinase (Homo sapiens, UniProt O75385).
T1 construct: purchased Eurofins 14-959
T1 sequence (O75385 with tags, fused parts or gaps): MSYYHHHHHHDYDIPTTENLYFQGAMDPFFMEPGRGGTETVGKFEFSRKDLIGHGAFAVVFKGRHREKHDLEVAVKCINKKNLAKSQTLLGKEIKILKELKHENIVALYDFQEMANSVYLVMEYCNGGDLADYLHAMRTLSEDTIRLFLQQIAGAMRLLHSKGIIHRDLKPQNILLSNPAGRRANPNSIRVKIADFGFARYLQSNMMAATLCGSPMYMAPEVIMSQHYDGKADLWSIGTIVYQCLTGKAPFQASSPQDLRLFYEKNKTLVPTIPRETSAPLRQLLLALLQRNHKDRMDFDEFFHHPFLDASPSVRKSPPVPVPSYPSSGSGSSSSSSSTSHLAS
The experiment in a line: Biochemical assay for ULK1.2 (coupled pyruvate kinase/lactate dehydrogenase assay). The following applies: 19 nM ULK1 (residues 1-314, His tag), myelin basic protein, 1 mM ATP. How it is done:
Biochemical Assay for ULK1.2 (SEQ. ID NO: 1)
Inhibition of ULK1 was measured by adding serial diluted test compound (final assay concentration of 1% DMSO). A decrease in absorption at 340 nm was monitored continuously for 6 hours at 30° C. on a multi-mode microplate reader (BioTek). The reaction rate was calculated using the 2-3 h time frame. The reaction rate at each concentration of compound was converted to percent inhibition using controls (i.e. reaction with no test compound and reaction with a known inhibitor) and IC50 values were calculated by fitting a four-parameter sigmoidal curve to the data using Prism (GraphPad software).

Test [2] has as its target T2, ULK2 kinase (Homo sapiens, UniProt Q8IYT8).
T2 construct: purchased Eurofins 14-772
Put plainly: Biochemical assay for ULK2 (coupled pyruvate kinase/lactate dehydrogenase assay). As to conditions: 9.7 nM ULK2 (residues 1-306, GST and His tag), myelin basic protein, 1 mM ATP; read-out: ULK2.2. As for the experimental part:
Example 132. Biochemical Assay for ULK2 (SEQ. ID NO: 3)
Activity of ULK2 kinase was determined spectroscopically using a coupled pyruvate kinase/lactate dehydrogenase assay that continuously monitors the ATP hydrolysis-dependent oxidation of NADH (e.g., Schindler et al. Science (2000) 289: 1938-1942). Assays were conducted in 384-well plates (100 uL final volume) using 9.7 nM ULK2 (Eurofins CAT #14-772), 0.25 mg/mL myelin basic protein, 1.5 units pyruvate kinase, 2.1 units lactate dehydrogenase, 1 mM phosphoenol pyruvate, 0.28 mM NADH and 1 mM ATP in assay buffer (100 mM Tris, pH 7.5, 15 mM MgCl2, 0.5 mM DTT, 0.1% octyl-glucoside, 0.002% (w/v) BSA, and 0.002% Triton X-100). Inhibition of ULK2 was measured by adding serial diluted test compound (final assay concentration of 1% DMSO). A decrease in absorption at 340 nm was monitored continuously for 6 hours at 30° C. on a multi-mode microplate reader (BioTek). The reaction rate was calculated using the 2-3 h time frame. The reaction rate at each concentration of compound was converted to percent inhibition using controls (i.e. reaction with no test compound and reaction with a known inhibitor) and IC50 values were calculated by fitting a four-parameter sigmoidal curve to the data using Prism (GraphPad software).

In test [3] the test system is ULK kinase. Put plainly: pATG13 levels of mutant KRas A549 cells after treatment with ULK inhibitors in combination with trametinib (ELISA). The format is cell-based, human. As to conditions: A549 (KRAS mutant) lung cancer cells, 250 nM trametinib, overnight, pS318-ATG13. In a few lines: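 Lysates with phosphatase/protease inhibitors assayed by pATG13 ELISA, A450 minus A540 background and blank-corrected. % ATG13 phosphorylation versus DMSO controls fitted to IC50.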
(In general: ELISA stands for enzyme-linked immunosorbent assay.)

Test [4] concerns ULK kinase. Put plainly: pATG13 levels of mutant KRas MiaPaCa-2 cells after treatment with ULK inhibitors in combination with trametinib (ELISA). In kind it is cell-based, human. As to conditions: MiaPaCa-2 pancreatic cancer cells, 250 nM trametinib, overnight, pS318-ATG13. The gist of the method:
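MiaPaCa-2 cells in DMEM with 10% FBS and 2.5% horse serum were pretreated with trametinib or DMSO, then given a test-compound dose response overnight at 37° C. Lysates were assayed for phospho-ATG13 by ELISA (A450 minus A540 background, blank-corrected). % phosphorylation was calculated relative to controls and fitted to IC50.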

The target of test [5] is T3, LRRK2 kinase (Homo sapiens, UniProt Q5S007).
T3 construct: purchased Thermo Fisher
Put plainly: Biochemical assay for LRRK2 (coupled pyruvate kinase/lactate dehydrogenase assay). As to conditions: 26.4 nM LRRK2 (residues 970-2528), peptide substrate, 1 mM ATP. How it is done: Example 138. Biochemical Assay for LRRK2 (SEQ. ID NO: 4)
Activity of LRRK2 kinase was determined spectroscopically using a coupled pyruvate kinase/lactate dehydrogenase assay that continuously monitors the ATP hydrolysis-dependent oxidation of NADH (e.g., Schindler et al. Science (2000) 289: 1938-1942). Assays were conducted in 384-well plates (100 μL final volume) using 26.4 nM LRRK2 (Thermo Fisher), 0.1 mM peptide substrate ([…] (SEQ ID NO: 6)), 1.5 units pyruvate kinase, 2.1 units lactate dehydrogenase, 1 mM phosphoenol pyruvate, 0.28 mM NADH and 1 mM ATP in assay buffer (100 mM Tris, pH 7.5, 15 mM MgCl2, 0.5 mM DTT, 0.004% (w/v) BSA, and 0.004% Triton X-100). Inhibition of LRRK2 was measured by adding serial diluted test compound (final assay concentration of 1% DMSO). A decrease in absorption at 340 nm was monitored continuously for 6 hours at 30° C. on a multi-mode microplate reader (BioTek). The reaction rate was calculated using the 2-3 h time frame. The reaction rate at each concentration of compound was converted to percent inhibition using controls (i.e. reaction with no test compound and reaction with a known inhibitor) and IC50 values were calculated using software routines in Prism (GraphPad software).

A value given as a limit tells only on which side of the number the result lay.

T2 sequence (Q8IYT8 with tags, fused parts or gaps): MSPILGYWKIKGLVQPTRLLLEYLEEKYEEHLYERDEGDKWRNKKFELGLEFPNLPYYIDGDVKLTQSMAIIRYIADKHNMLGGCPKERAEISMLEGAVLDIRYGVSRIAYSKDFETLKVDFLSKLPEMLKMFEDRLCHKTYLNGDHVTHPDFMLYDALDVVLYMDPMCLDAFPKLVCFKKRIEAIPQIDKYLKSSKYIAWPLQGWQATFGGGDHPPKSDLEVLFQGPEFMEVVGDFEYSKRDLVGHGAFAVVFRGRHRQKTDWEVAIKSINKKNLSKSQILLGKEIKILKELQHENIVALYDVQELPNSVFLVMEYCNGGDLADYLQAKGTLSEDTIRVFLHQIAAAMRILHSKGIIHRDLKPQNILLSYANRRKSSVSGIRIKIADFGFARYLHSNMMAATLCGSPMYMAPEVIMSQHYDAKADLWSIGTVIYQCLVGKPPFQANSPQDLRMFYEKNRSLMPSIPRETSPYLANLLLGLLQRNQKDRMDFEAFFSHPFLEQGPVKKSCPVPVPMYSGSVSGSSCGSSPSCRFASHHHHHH
T3 sequence (Q5S007 with tags, fused parts or gaps): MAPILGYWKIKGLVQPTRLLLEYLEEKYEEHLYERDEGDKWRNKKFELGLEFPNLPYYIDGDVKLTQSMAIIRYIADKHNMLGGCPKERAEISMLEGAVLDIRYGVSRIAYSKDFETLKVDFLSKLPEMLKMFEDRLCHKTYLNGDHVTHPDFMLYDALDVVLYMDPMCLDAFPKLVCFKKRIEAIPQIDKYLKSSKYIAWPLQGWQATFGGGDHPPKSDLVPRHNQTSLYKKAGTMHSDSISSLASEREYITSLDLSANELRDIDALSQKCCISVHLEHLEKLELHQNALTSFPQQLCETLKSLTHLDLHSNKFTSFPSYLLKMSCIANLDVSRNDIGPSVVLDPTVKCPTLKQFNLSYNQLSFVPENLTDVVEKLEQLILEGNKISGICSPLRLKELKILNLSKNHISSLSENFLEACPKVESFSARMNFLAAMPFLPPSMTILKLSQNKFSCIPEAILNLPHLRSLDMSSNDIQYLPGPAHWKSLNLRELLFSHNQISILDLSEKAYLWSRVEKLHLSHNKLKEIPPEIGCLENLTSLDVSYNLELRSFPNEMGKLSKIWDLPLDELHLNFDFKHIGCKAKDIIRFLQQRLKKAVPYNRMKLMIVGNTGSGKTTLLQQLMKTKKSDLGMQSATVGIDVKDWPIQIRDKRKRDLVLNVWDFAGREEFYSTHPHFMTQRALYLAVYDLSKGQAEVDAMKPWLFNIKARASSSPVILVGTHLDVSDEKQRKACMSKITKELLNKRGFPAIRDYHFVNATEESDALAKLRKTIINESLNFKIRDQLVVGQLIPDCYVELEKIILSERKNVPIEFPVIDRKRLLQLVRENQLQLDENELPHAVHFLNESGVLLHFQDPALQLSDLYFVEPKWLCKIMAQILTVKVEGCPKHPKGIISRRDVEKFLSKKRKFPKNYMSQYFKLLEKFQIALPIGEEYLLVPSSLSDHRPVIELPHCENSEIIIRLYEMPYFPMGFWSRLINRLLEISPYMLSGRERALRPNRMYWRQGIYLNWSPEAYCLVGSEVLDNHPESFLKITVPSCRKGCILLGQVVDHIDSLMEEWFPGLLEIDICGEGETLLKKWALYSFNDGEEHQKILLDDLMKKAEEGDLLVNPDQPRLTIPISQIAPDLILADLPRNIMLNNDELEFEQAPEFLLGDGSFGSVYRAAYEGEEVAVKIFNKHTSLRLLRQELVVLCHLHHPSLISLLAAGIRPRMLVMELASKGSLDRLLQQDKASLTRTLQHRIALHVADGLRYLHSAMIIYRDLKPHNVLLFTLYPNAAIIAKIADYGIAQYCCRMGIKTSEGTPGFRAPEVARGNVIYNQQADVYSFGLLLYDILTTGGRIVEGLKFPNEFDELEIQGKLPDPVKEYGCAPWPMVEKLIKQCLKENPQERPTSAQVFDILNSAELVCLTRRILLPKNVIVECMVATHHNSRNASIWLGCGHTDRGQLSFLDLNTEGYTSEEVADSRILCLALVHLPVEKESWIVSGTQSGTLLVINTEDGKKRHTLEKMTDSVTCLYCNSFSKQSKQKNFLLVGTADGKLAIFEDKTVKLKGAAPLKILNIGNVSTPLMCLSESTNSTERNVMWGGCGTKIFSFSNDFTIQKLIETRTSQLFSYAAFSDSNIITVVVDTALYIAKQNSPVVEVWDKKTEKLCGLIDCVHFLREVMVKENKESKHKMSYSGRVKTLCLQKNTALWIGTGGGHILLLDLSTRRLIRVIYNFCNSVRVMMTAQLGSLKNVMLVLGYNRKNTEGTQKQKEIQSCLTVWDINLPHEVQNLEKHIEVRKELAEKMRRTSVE

Molecule `Cc1cc(C2CCN(C)CC2)ccc1Nc1ncc(Cl)c(NCCCN2CCCCC2=O)n1` [Example 6] had an IC50 in test [1] of more than 500 nM.

As for `O=C1CCCCN1CCCNc1nc(Nc2ccc(N3CCCNCC3)cc2)ncc1C(F)(F)F` [Example 9, 1-(3-((2-((4-(1,4-diazepan-1-yl)phenyl)amino)-5-(trifluoromethyl)pyrimidin-4-yl)amino)propyl)piperidin-2-one], the IC50 in test [1] and in test [2] was 1 to 25 nM throughout.

`Cc1cc(N2CCNCC2)ccc1Nc1ncc(C(F)(F)F)c(NCCCN2CCCCC2=O)n1` [Example 16]: the IC50 in test [1] was in the range of 1 to 25 nM; in test [3], 10 to 100 nM; in test [4], 10 to 100 nM.

In turn, `Cc1cc(N2CCN(C(C)C)CC2)ccc1Nc1ncc(C(F)(F)F)c(NCCCN2CCCCC2=O)n1` [Example 17] yielded an IC50 in test [1] of 1 to 25 nM.

On to `Cc1cc(N2CCN(C)CC2)ccc1Nc1ncc(C(F)(F)F)c(NCCCN2CCCC2=O)n1` [Example 2], for which the figures for the IC50 in test [1] and in test [5] were 100 to 500 nM and 1 to 100 nM, respectively.

With `Cc1cc(N2CCN(C3CC3)CC2)ccc1Nc1ncc(C(F)(F)F)c(NCCCN2CCCCC2=O)n1` [Example 22], the IC50 in test [1] lay within 1 to 25 nM; in test [2] it was 100 to 500 nM.

`Cc1cc(N2CCNCC2)ccc1Nc1ncc(C(F)(F)F)c(NCCCN2CCCC2=O)n1` [Example 3] displayed an IC50 in test [1] of 100 to 500 nM.

Take `Cc1cc(N2CCN(C3CCC3)CC2)ccc1Nc1ncc(C(F)(F)F)c(NCCCN2CCCCC2=O)n1` [Example 21]: the IC50 in test [1] is 1 to 25 nM; in test [2] it was 1 to 25 nM; in test [3], 300 to 600 nM; in test [4], 100 to 300 nM.

In the case of `Cc1cc(N2CCN(C)CC2)ncc1Nc1cc(NCCCN2CCCCC2=O)c(C(F)(F)F)cn1` [Example 95], the IC50 in test [1] was 100 to 500 nM; in test [2] it was more than 500 nM.

For the molecule `Cc1cc(C2CCNCC2)ccc1Nc1ncc(C(F)(F)F)c(NCCCN2CCCCC2=O)n1` [Example 7], the IC50 in test [1] was 25 to 100 nM; in test [2] it was 100 to 500 nM; in test [3], more than 600 nM.

For the molecule `CCN1CCN(c2ccc(Nc3ncc(C(F)(F)F)c(NCCCN4CCCCC4=O)n3)c(C)c2)CC1` [Example 19], the IC50 in test [1] lay within 1 to 25 nM; in test [2], 25 to 100 nM; in test [3], 100 to 300 nM; in test [4] it was 100 to 300 nM.

Regarding `CCc1cc(N2CCOCC2)ccc1Nc1ncc(C(F)(F)F)c(NCCCN2CCOCCC2=O)n1` [Example 72], the IC50 in test [1] is 25 to 100 nM; in test [2] it was more than 500 nM; in test [4], 300 to 600 nM.

For `CCc1cc(N2CCN(C)CC2)ccc1Nc1ncc(C(F)(F)F)c(NCCCN2CCCC2=O)n1` [Example 4], the IC50 in test [1] lay in the range of 25 to 100 nM; in test [2], 100 to 500 nM; in test [3], 300 to 600 nM; in test [4] it was 300 to 600 nM.

Regarding `CCc1cc(N2CCN(C)CC2)ccc1Nc1ncc(C(F)(F)F)c(NCCCN2CCOCCC2=O)n1` [Example 66], the IC50 in test [2] was 25 to 100 nM; in test [5] it was 100 to 300 nM.

For the molecule `Cc1cc(N2CCN(C)CC2)ccc1Nc1ncc(C(F)(F)F)c(NCCCN2CCOCCC2=O)n1` [Example 65], the IC50 lay in the range of 1 to 25 nM in test [1], 25 to 100 nM in test [2], 10 to 100 nM in test [3] and 100 to 300 nM in test [4].

`CCc1cc(N2CCOCC2)ccc1Nc1ncc(Cl)c(NCCCN2CCCOCC2=O)n1` [Example 57]: the IC50 was more than 500 nM in test [1], more than 500 nM in test [2] and more than 600 nM in test [3].

Turning to `Cc1cc(C2CCN(C)CC2)ccc1Nc1ncc(C(F)(F)F)c(NCCCN2CCCCC2=O)n1` [Example 8], the values for the IC50 in test [1], in test [2] and in test [3] were 25 to 100 nM, 100 to 500 nM and 100 to 300 nM, respectively.

As to `O=C1CCOCCN1CCCNc1nc(Nc2ccc(N3CCOCC3)cc2C2CC2)ncc1C(F)(F)F` [Example 71], the IC50 in test [1] is 1 to 25 nM; in test [2], more than 500 nM; in test [4], more than 600 nM.

As for `Cc1cc(C2CCNCC2)ccc1Nc1ncc(Cl)c(NCCCN2CCCCC2=O)n1` [Example 5], the IC50 was more than 500 nM in test [1] and 100 to 300 nM in test [5].

For `CCN1CCCN(c2ccc(Nc3ncc(C(F)(F)F)c(NCCCN4CCCCC4=O)n3)cc2)CC1` [Example 10, 1-(3-((2-((4-(4-ethyl-1,4-diazepan-1-yl)phenyl)amino)-5-(trifluoromethyl)pyrimidin-4-yl)amino)propyl)piperidin-2-one], the IC50 in test [1] lay in the range of 1 to 25 nM; in test [2], 1 to 25 nM; in test [3] it was 100 to 300 nM; in test [4], 100 to 300 nM.

With `O=C1COCCCN1CCCNc1nc(Nc2ccc(N3CCOCC3)cc2C2CC2)ncc1Cl` [Example 59], the IC50 in test [1] and in test [2] was more than 500 nM in each case.

In the case of `Cc1cc(N2CCOCC2)ncc1Nc1cc(NCCCN2CCCCC2=O)c(C(F)(F)F)cn1` [Example 96], the IC50 in test [1] and in test [2] was more than 500 nM throughout.

Consider `CCc1cc(N2CCN(CC)CC2)ccc1Nc1ncc(C(F)(F)F)c(NCCCN2CCCCC2=O)n1` [Example 12], for which the IC50 in test [1] was in the range of 1 to 25 nM; in test [2], 1 to 25 nM; in test [3] it was 10 to 100 nM; in test [4], 10 to 100 nM.

On to `CC1(C)CCC(=O)N1CCCNc1nc(Nc2ccc(N3CCN(C4CC4)CC3)cc2)ncc1C1CC1` [Example 1], for which the IC50 in test [1] was more than 500 nM; in test [5], more than 600 nM.

On to `CCN1CCN(c2ccc(Nc3ncc(C(F)(F)F)c(NCCCN4CCCCC4=O)n3)c(C3CC3)c2)CC1` [Example 13], for which the IC50 in test [1] fell in the range of 1 to 25 nM; in test [2], 1 to 25 nM; in test [3], 10 to 100 nM; in test [4], 10 to 100 nM.
